This note sets out measurements from patent US9394285B2 (Pfizer Inc., priority 2013, dated 2016).

The target of the experiment is human AMPK (full-length γ1, β1 and α1 subunits) (Homo sapiens (Human), UniProt Q13131+Q9Y478). Briefly: AMPK in vitro biochemical assay (33P-based, SAMS peptide, PP2A dephosphorylation). Particulars: for EC50: activation of phosphorylated AMPK, 33P-ATP, SAMS peptide, PP2A treatment, 4-parameter fit; for Emax: counts as % of positive control wells (enzyme, allosteric activator or AMP, PP2A and substrate), read-out: Maximum. From the text: We designed a tricistronic AMPK expression construct that included open reading frames encoding the full-length γ1, β1 and α1 subunits of human AMPK with a ribosome-binding site (RBS) ahead of each coding region and subcloned this into pET-14b expression vector (Novagen, Madison, Wis.) using standard molecular biology techniques. AMPK tricistronic construct was transformed into E. coli BL21-CodonPlus™ (DE3)-RIPL strain (Stratagene) and transformants were selected on LB (Luria-Bertani) agar plates containing ampicillin (100 μg/ml). […] Optical density sample measurements were made on an UltroSpec 2000 spectrophotometer (Pharmacia Biotech) at 600 nm. When the cell density reached ˜0.9 OD, the temperature was reduced to 18° C. and the culture was induced at 18° C. with 0.1 mM Isopropylthiogalactoside (IPTG). […] The cell pellets were aliquoted into four portions, flash frozen in liquid nitrogen and were stored at −80° C. until purification. For purification, frozen cell paste was thawed and resuspended in 50 ml lysis buffer (50 mM Tris, pH 8.0, 150 mM NaCl, 10% glycerol, 2 mM Tris-2-carboxyethyl phosphine (TCEP), 20 mM imidazole and 0.001% Triton X-100). After sonication, insoluble material was removed by centrifugation at 15,000 rpm in a Sorvall® RC5 plus centrifuge for 30 min at 4° C. and the supernatant was loaded onto a 5 ml HisTrap™ HP column (GE Healthcare, Piscataway, N.J.) and washed with five column volumes of lysis buffer. Bound proteins were eluted using an elution buffer containing 300 mM imidazole. Fractions containing AMPK subunits were pooled based on SDS-10% PAGE analysis and dialyzed overnight in dialysis buffer (50 mM Tris, pH 8.0, 150 mM NaCl, 10% glycerol, 2 mM TCEP, and 0.001% Triton X-100). […] The phosphorylated AMPK complex was re-purified on HisTrap™ HP column as before, dialyzed over night in dialysis buffer. The phosphorylated AMPK complex was further purified by gel filtration chromatography with a Superdex 200 HiLoad 16/60 column (GE Healthcare) in SEC buffer (50 mM Tris, pH 8.0, 150 mM NaCl, 10% glycerol, 2 mM TCEP, and 0.001% Triton X-100).
Chain of human AMPK (full-length γ1, β1 and α1 subunits) (Q13131 whole entry): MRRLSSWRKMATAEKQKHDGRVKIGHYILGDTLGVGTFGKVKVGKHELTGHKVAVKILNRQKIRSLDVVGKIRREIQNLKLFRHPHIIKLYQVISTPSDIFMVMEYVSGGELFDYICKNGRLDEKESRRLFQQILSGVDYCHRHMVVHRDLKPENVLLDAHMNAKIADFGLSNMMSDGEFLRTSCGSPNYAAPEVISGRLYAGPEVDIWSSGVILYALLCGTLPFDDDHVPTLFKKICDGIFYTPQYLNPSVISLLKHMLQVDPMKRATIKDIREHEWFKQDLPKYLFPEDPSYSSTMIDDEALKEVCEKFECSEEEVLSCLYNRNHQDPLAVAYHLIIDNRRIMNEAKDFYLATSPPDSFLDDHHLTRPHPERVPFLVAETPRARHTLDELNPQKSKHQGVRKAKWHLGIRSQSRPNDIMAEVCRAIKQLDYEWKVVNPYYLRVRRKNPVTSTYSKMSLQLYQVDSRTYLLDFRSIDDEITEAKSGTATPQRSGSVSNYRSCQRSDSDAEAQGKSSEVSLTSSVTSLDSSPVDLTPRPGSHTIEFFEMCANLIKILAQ
Chain of human AMPK (full-length γ1, β1 and α1 subunits) (Q9Y478 whole entry): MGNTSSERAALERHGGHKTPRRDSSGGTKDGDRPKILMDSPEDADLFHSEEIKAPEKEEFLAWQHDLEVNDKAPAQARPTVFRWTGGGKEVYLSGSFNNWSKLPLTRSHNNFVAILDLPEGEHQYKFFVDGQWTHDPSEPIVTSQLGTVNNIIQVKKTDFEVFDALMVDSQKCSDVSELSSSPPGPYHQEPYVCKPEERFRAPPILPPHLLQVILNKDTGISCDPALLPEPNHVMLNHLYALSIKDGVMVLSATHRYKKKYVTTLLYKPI
Chain of human AMPK (full-length γ1, β1 and α1 subunits) (P54619 whole entry partner): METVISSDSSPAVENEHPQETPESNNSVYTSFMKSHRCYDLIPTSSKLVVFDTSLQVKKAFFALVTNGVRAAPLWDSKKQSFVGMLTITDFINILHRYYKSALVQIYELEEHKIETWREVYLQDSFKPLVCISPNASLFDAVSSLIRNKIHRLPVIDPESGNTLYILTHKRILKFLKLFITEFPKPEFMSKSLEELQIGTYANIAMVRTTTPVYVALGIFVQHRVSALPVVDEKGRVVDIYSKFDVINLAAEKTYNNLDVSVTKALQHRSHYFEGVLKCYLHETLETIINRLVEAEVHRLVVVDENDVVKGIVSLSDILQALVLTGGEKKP
The harvest time (72 hours post infection) was indicated by percent cell viability (to 85-90%) and increased cell diameter (3-4 μm). […] For purification, the cell paste was resuspended in 500 mL lysis buffer (50 mM Tris pH 8.0, 150 mM NaCl, 25 mM imidazole, 10% glycerol, 2 mM MgCl2, 2 mM TCEP+protease inhibitor cocktail. After lysis, cellular debris was removed by centrifugation at 36K×g for 1 hour. The resulting supernatant was filtered at 0.2 micron before applying to a 1 mL nickel charged IMAC column (HisTrap, GE). The bound resin was washed to baseline with 50 CV of 50 mM Tris pH 8.0, 150 mM NaCl, 25 mM imidazole, 10% glycerol, 2 mM MgCl2, 2 mM TCEP before eluting over a 20 CV gradient to 100% with wash buffer containing 500 mM imidazole. Pooled fractions containing PP2A were combined and diluted 10× with 50 mM Tris pH 8.0, 10% glycerol, 1 mM TCEP and applied to a 1 mL AIEX resin (HiTrap QFF, GE). The bound resin was washed with dilution buffer and PP2A was eluted over a 20 CV gradient to 100% 50 mM Tris pH 8.0, 500 mM NaCl, 10% glycerol, 1 mM TCEP and was further diluted 1:1 with 50 mM Tris pH 8.0, 150 mM NaCl, 10% glycerol, and 1 mM TCEP buffer.
The biochemical EC50 (half-maximal concentration required for full activation) of compounds for the activation of AMPK was evaluated by ^33P-based assay using SAMS peptide (commercially available) derived from ACC-1. Twenty μl of phosphorylated AMPK diluted in assay buffer, (50 mM HEPES, 1 mM EGTA, 10 mM MgCl2, 0.25 mM DTT, 0.01% Tween-20, 0.01% BSA (pH 7.5)) was added to 384 well plates containing 1 μL of test compound. Following a fifteen minute room temperature incubation, 10 μL of protein phosphatase PP2A was added to the plate to dephosphorylate pThr172 of AMPK. […] The reaction was terminated after 60 minutes incubation at room temperature by the addition of 15 μL of 2% H3PO4.

Consider `COc1cccc(-c2cc3c(C(=O)O)c[nH]c3cc2Cl)c1` [Example 29, 6-chloro-5-(3-methoxyphenyl)-1H-indole-3-carboxylic acid], for which it took 383 nM to reach a half-maximal effect (EC50) and the Emax was 101%.
The corresponding values for `CCOc1ccc(-c2cc3c(C(=O)O)c[nH]c3cc2Cl)cc1` [Example 31, 6-Chloro-5-(4-ethoxyphenyl)-1H-indole-3-carboxylic acid] are 130 nM and 104%.
The corresponding values for `COc1ccc(-c2cc3c(C(=O)O)c[nH]c3cc2C#N)cc1` [Example 32, 6-Cyano-5-(4-methoxyphenyl)-1H-indole-3-carboxylic acid] are 570 nM and 97%.
The corresponding values for `COc1ccc(-c2cc3c(C(=O)O)c[nH]c3cc2Cl)cc1` [Example 33, 6-Chloro-5-(4-methoxy-phenyl)-1H-indole-3-carboxylic acid] are 85.3 nM and 83%.
Consider `COc1ccc(-c2cc3c(C(=O)O)c[nH]c3cc2F)cc1` [Example 34, 6-Fluoro-5-(4-methoxy-phenyl)-1H-indole-3-carboxylic acid], for which the 50% effective concentration (EC50) amounted to 315 nM and the Emax came to 122%.
The corresponding values for `Cc1cc2[nH]cc(C(=O)O)c2cc1-c1ccc(C2(O)CCC2)cc1` [Example 35, 5-[4-(1-hydroxycyclobutyl)phenyl]-6-methyl-1H-indole-3-carboxylic acid] are 74.2 nM and 72%.
The corresponding values for `CC(C)(CO)c1ccc(-c2cc3c(C(=O)O)c[nH]c3cc2Cl)cc1` [Example 36, 6-chloro-5-[4-(1-hydroxy-2-methylpropan-2-yl)phenyl]-1H-indole-3-carboxylic acid] are 7.1 nM and 70%.
The corresponding values for `COc1ccc(-c2cc3c(C(=O)O)c[nH]c3cc2Cl)cc1OC` [Example 37, 6-chloro-5-(3,4-dimethoxyphenyl)-1H-indole-3-carboxylic acid] are 248 nM and 81%.
For the compound `Cc1cc(C2(O)CCC2)ccc1-c1cc2c(C(=O)O)c[nH]c2cc1Cl` [Example 40, 6-chloro-5-[4-(1-hydroxycyclobutyl)-2-methylphenyl]-1H-indole-3-carboxylic acid], a half-maximal response (EC50) required 821 nM and the Emax was 78%.
The corresponding values for `Cc1cc(-c2cc3c(C(=O)O)c[nH]c3cc2Cl)ccc1C1(O)CCC1` [Example 41, 6-chloro-5-[4-(1-hydroxycyclobutyl)-3-methylphenyl]-1H-indole-3-carboxylic acid] are 9.6 nM and 62%.
The corresponding values for `O=C(O)c1c[nH]c2cc(Cl)c(-c3ccc(C4(O)CCC4)c(F)c3)cc12` [Example 42, 6-chloro-5-[3-fluoro-4-(1-hydroxycyclobutyl)phenyl]-1H-indole-3-carboxylic acid] are 21.8 nM and 65%.
The corresponding values for `O=C(O)c1c[nH]c2cc(Cl)c(-c3ccc(-c4ccccc4)cc3)cc12` [Example 43, 5-(biphenyl-4-yl)-6-chloro-1H-indole-3-carboxylic acid] are 1.7 nM and 68%.
Regarding `COc1ccc(-c2cc3c(C(=O)O)c[nH]c3cc2Cl)c(F)c1` [Example 44, 6-chloro-5-(2-fluoro-4-methoxyphenyl)-1H-indole-3-carboxylic acid], the EC50 was 85 nM and the Emax was 78%.
Consider `CS(=O)(=O)N1CCC1c1ccc(-c2cc3c(C(=O)O)c[nH]c3cc2Cl)cc1` (stereo not shown) [Example 45, 6-chloro-5-{4-[1-(methylsulfonyl)azetidin-2-yl]phenyl}-1H-indole-3-carboxylic acid], for which the EC50 stood at 225 nM and the Emax is 94%.
For the compound `O=C(O)c1c[nH]c2cc(Cl)c(-c3ccc(OC[C@@H]4CCCN4)cc3)cc12` [Example 47, 6-chloro-5-{4[(2S)-pyrrolidin-2-ylmethoxy]phenyl}-1H-indole-3-carboxylic acid], the response was half-maximal at 65.3 nM (EC50) and the Emax was 96%.
Consider `O=C(O)c1c[nH]c2cc(Cl)c(-c3ccc(OCCN4CCNCC4)cc3)cc12` [Example 48, 6-chloro-5-{4-[2-(piperazin-1-yl)ethoxy]phenyl}-1H-indole-3-carboxylic acid], for which a half-maximal response (EC50) required 110 nM and the Emax came to 89%.
The corresponding values for `O=C(O)c1c[nH]c2cc(Cl)c(-c3ccc(O[C@H]4CCCC[C@@H]4O)cc3)cc12` [Example 50, 6-chloro-5-(4-{[(1S,2S)-2-hydroxycyclohexyl]oxy}phenyl)-1H-indole-3-carboxylic acid] are 204 nM and 79%.
In the case of `Cc1ccc(-c2cc3c(C(=O)O)c[nH]c3cc2Cl)cc1` [Example 51, 6-chloro-5-(4-methylphenyl)-1H-indole-3-carboxylic acid], the EC50 is 320 nM and the Emax stood at 93%.
With `O=C(O)c1c[nH]c2cc(Cl)c(-c3ccc(OCCCN4CCNCC4)cc3)cc12` [Example 52, 6-chloro-5-{4-[3-(piperazin-1-yl)propoxy]phenyl}-1H-indole-3-carboxylic acid], the EC50 is 38.1 nM and the Emax amounted to 91%.
The corresponding values for `CN1CCN(CCCOc2ccc(-c3cc4c(C(=O)O)c[nH]c4cc3Cl)cc2)CC1` [Example 53, 6-chloro-5-{4-[3-(4-methylpiperazin-1-yl)propoxy]phenyl}-1H-indole-3-carboxylic acid] are 22 nM and 120%.
As for `O=C(O)c1c[nH]c2cc(Cl)c(-c3ccc(OCCCN4CCOCC4=O)cc3)cc12` [Example 54, 6-chloro-5-{4-[3-(3-oxomorpholin-4-yl)propoxy]phenyl}-1H-indole-3-carboxylic acid], the EC50 came out at 32.5 nM and the Emax turned out to be 74%.
The corresponding values for `COc1cc(-c2cc3c(C(=O)O)c[nH]c3cc2Cl)ccc1OC[C@@H]1CCCN1` [Example 55, (S)-6-Chloro-5-(3-methoxy-4-(pyrrolidin-2-ylmethoxy)phenyl)-1H-indole-3-carboxylic acid] are 209 nM and 87%.
The corresponding values for `COc1cc(-c2cc3c(C(=O)O)c[nH]c3cc2Cl)ccc1C(C)(C)O` [Example 56, 6-chloro-5-(4-(2-hydroxypropan-2-yl)-3-methoxyphenyl)-1H-indole-3-carboxylic acid] are 334 nM and 137%.
The corresponding values for `O=C(O)c1c[nH]c2cc(Cl)c(-c3ccc4c(c3)OCC4)cc12` [Example 57, 6-chloro-5-(2,3-dihydrobenzofuran-6-yl)-1H-indole-3-carboxylic acid] are 64.5 nM and 107%.
On to `O=C(O)c1c[nH]c2cc(Cl)c(-c3ccc(OCCCO)c(F)c3)cc12` [Example 58, 6-chloro-5-[3-fluoro-4-(3-hydroxypropoxy)phenyl]-1H-indole-3-carboxylic acid], for which the EC50 came to 89.2 nM and the Emax was 107%.
The corresponding values for `COc1cc(-c2cc3c(C(=O)O)c[nH]c3cc2Cl)ccc1OCCCO` [Example 59, 6-chloro-5-[4-(3-hydroxypropoxy)-3-methoxyphenyl]-1H-indole-3-carboxylic acid] are 133 nM and 75%.

For orientation: EC50 means the concentration that produces a half-maximal response. The low end stands for greater potency, the high end for weaker potency.
